Measured values published in US20210355235A1, “Compositions and Methods For Treating Cancer with Anti-Renalase antibodies and Anti-PD1 antibodies” (YALE UNIVERSITY, priority 2017, published 2021).

How the values were obtained:
[1] = system: renal ischemia; experiment: renal ischemia and reperfusion in WT mice; assay type: in vivo, mouse; conditions: 30 minutes of renal ischemia and reperfusion
Description: FIG. 3 is a chart showing that ERK or AKT inhibition abrogates protective effect of renalase peptide: WT mice subjected to sham surgery or to 30 minutes of renal ischemia and reperfusion; RP-[…] or vehicle (saline) injected 10 minutes before renal ischemia. ERK inhibitor PD98059 or the PI3K/AKT inhibitor wortmannin abrogated RP-[…]'s protective effect.

[2] = system: MiaPaCa2 cells; conditions: pretreatment before rRNLS 30 μg/ml

SMILES | effect on RP-H220's protective effect [1] | effect on rRNLS' protective effect [2]
COc1cccc(-c2cc(=O)c3ccccc3o2)c1N [PD98059] | abrogated | –
N#CC(=C(/N)Sc1ccccc1N)/C(C#N)=C(\N)Sc1ccccc1N [U0126] | – | abrogated
